Test results reported in patent US20150291547A1, “SMALL MOLECULES FOR EXTENDING THE WELL BEING OF CELLS AND METHODS OF USE THEREOF” (NANYANG POLYTECHNIC, priority 2011, published 2015).

Assays:
[1] = system: hTERT expression (hTERT promoter); test: HepG2-phTERT-SEAP reporter assay (SEAP activity as measure of hTERT expression); type: cell-based, human; conditions: for increase in hTERT expression: 16 hours; for average increase in hTERT expression: 20 μg/ml, 16 hours incubation, HepG2-hTERT reporter cell line, n=5 (FIG. 1)
Procedure: NPL which consists of a total of 480 different pure natural product compounds.
(§1) “SEAP” stands for secreted alkaline phosphatase enzyme. SEAP was used as a reporter system to monitor the transcriptional activity of hTERT. Here, about 10,000 cells per well were grown in 96-well plates and incubated at 37° C. for 22 hours. Varying types and amounts of natural compounds were added and cells were incubated for another 16 hours. Culture media were collected and heated at 65° C. for 10 mins to inactivate heat labile phosphatases. An equal amount of SEAP buffer (2M diethanolamine, 1 mM MgCl2, and 20 mM L-homoarginine), was added to the media and p-nitrophenyl phosphate was added to a final concentration of 12 mM. Absorbance at 405 nm was taken, and the percentage change in absorbance was calculated.
An increase in SEAP activity detected via the utilization of a substrate, translates to an increase in hTERT expression.
Cell lines suitable for use in the assay were prepared from ATTC No. HB-8065 Hep G2 (Hepatocellular carcinoma, human). The Hep G2 cell line was isolated from a liver biopsy of a person with a well differentiated hepatocellular carcinoma. These cells are epithelial in morphology. These cells secrete a variety of major plasma proteins e.g., alpha-fetoprotein (alpha fetoprotein); albumin; alpha2 macroglobulin (alpha-2-macroglobulin); alpha1 antitrypsin (alpha-1-antitrypsin); transferrin; alpha1 antichymotrypsin; (alpha-1-antichymotrypsin); haptoglobin; ceruloplasmin; plasminogen; complement (C4); C3 activator; fibrinogen; alpha1 acid glycoprotein (alpha-1 acid glycoprotein); alpha2 HS glycoprotein (alpha-2-HS-glycoprotein); beta lipoprotein (beta-lipoprotein); retinol binding protein (retinol-binding protein). The cells are also responsive to stimulation with human growth hormone. HepG2 cells and its derivatives are commonly used as a model system for studies of liver metabolism and toxicity of xenobiotics, the detection of cytoprotective, anti (environmental and dietary) genotoxic and cogenotoxic agents, understanding hepatocarcinogenesis, and for drug targeting studies. HepG2 cells are also employed in trials with bio-artificial liver devices.
(§2) One of the plasmids contains the 5′ upstream hTERT promoter region followed by the reporter gene, the SEAP gene, while the other plasmid contains the CMV promoter region controlling the expression of the SEAP gene.
(§3) Each plasmid was then individually transfected into HepG2 cells and stable cells lines were established by selection on G418 (1 mg/ml). Stable clones of from each plasmid transfected cell line was established and each clone was propagated and preserved under liquid nitrogen for long term storage prior to use
(§4) The newly established HepG2-pTERT-SEAP and HepG2-pCMV-SEAP stable cell lines were then used for screening for inhibitors or activators of human telomerase expression.
An increase in SEAP activity indicates an increase in hTERT expression and a decrease in SEAP activity indicates a decrease in hTERT expression.
HepG2-phTERT-SEAP cells were grown for 22 hours in M199 medium supplemented with 10% FBS. The three compounds, 7E (P1), 8H(P1) and 11E(P2) (20 μg/ml) specified above were added and incubated for another 16 hours. After 16 hours, SEAP assay was conducted in accordance to the protocol described by Huang et al. (2003).

[2] = system: hTERT promoter relative to CMV promoter; test: Specificity check: hTERT promoter relative to CMV promoter driven SEAP in HepG2 cells; type: cell-based, human; conditions: for Average phTERT/pCMV ratio: 20 μg/ml, 16 hours, ± SE, n = 3; for specificity in activating hTERT expression: judged from average phTERT/pCMV ratio
Procedure: as §1, §2, §3, §4
HepG2-pCMV-SEAP serves as a positive control to ensure that SEAP is always secreted by cells harbouring this plasmid. It also serves as a specificity control as any small molecules that stimulate or inhibit only telomerase expression identified using the HepG2-pTERT-SEAP cells screening should show little to no increase in SEAP activity.
HepG2-phTERT-SEAP cells were grown for 22 hours in M199 medium supplemented with 10% FBS. The three compounds (20 μg/ml) specified above were then added and incubated for another 16 hours. After 16 hours, SEAP assay was conducted in accordance to the protocol described by Huang et al. (2003). Concurrently, HepG2-pCMV-SEAP cells were also subjected to the compounds and results were also collected. The results obtained were as shown in Table 1 below which indicate the change in hTERT expression from n=3 independent experiments.

[3] = 1.25ug/ml, above untreated cells
[4] = 20 ug/ml, vs 1% DMSO control wells
[5] = 100 ug/ml, vs 1% DMSO control wells

Row | Compound | increase in hTERT expression [1, 3] [%] | average increase in hTERT expression [1] [%] | increase in hTERT expression [1, 4] [%] | increase in hTERT expression [1, 5] [%] | Average phTERT/pCMV ratio [2] | specificity in activating hTERT expression [2]
1 | O=c1cc(-c2ccc(O)c(O)c2)oc2cc(O[C@@H]3O[C@H](CO)[C@@H](O)[C@H](O)[C@H]3O)cc(O)c12 [7E, Plate 1, 2-(3,4-dihydroxyphenyl)-5-hydroxy-7-[3,4,5-trihydroxy-6-(hydroxymethyl)(2H-3,4,5,6-tetrahydropyran-2-yloxy)]chromen-4-one] | 12.3 | 29.42 | 34.7 | 167.0 | 1.08 ± 0.04 | only mildly specific
2 | COc1cc2ccc(=O)oc2c(O)c1OCC=C(C)C [8H, Plate 1, 8-hydroxy-6-methoxy-7-(3-methylbut-2-enyloxy) chromen-2-one] | 8.1 | 49.76 | 39.5 | 139.5 | 2.16 ± 0.14 | highly specific
3 | COc1cc2ccc(=O)oc2cc1O [11E, Plate 2, 7-hydroxy-6-methoxychromen-2-one] | 4.3 | 57.99 | 54.2 | 225.8 | 2.01 ± 0.01 | highly specific
4 | Cc1ccc(C(=O)Nc2ccc(S(=O)(=O)O)c3cc(S(=O)(=O)O)cc(S(=O)(=O)O)c23)cc1NC(=O)c1cccc(NC(=O)Nc2cccc(C(=O)Nc3cc(C(=O)Nc4ccc(S(=O)(=O)O)c5cc(S(=O)(=O)O)cc(S(=O)(=O)O)c45)ccc3C)c2)c1 [Suramin, reference compound] |  |  |  |  | 1.16 ± 0.11 | 
